Measured values taken from ChEMBL document CHEMBL5465560, “Selectivity Literature for EUbOPEN Chemogenomic Library” (2024).

Columns and labels:
[1] = target: Homeodomain-interacting protein kinase 1 (Homo sapiens, UniProt Q86Z02); test: Selectivity interaction (KinomeScan (DiscoverX)) EUB0000229b HIPK1; conditions: at 10 µM
[2] = target: T1, Ephrin type-B receptor 3 (Homo sapiens) (UniProt P54753); test: Selectivity interaction (Upstate Kinase Profiler service (Millipore)) EUB0000056c EPHB3; conditions: at 1 µM
T1 sequence (whole entry): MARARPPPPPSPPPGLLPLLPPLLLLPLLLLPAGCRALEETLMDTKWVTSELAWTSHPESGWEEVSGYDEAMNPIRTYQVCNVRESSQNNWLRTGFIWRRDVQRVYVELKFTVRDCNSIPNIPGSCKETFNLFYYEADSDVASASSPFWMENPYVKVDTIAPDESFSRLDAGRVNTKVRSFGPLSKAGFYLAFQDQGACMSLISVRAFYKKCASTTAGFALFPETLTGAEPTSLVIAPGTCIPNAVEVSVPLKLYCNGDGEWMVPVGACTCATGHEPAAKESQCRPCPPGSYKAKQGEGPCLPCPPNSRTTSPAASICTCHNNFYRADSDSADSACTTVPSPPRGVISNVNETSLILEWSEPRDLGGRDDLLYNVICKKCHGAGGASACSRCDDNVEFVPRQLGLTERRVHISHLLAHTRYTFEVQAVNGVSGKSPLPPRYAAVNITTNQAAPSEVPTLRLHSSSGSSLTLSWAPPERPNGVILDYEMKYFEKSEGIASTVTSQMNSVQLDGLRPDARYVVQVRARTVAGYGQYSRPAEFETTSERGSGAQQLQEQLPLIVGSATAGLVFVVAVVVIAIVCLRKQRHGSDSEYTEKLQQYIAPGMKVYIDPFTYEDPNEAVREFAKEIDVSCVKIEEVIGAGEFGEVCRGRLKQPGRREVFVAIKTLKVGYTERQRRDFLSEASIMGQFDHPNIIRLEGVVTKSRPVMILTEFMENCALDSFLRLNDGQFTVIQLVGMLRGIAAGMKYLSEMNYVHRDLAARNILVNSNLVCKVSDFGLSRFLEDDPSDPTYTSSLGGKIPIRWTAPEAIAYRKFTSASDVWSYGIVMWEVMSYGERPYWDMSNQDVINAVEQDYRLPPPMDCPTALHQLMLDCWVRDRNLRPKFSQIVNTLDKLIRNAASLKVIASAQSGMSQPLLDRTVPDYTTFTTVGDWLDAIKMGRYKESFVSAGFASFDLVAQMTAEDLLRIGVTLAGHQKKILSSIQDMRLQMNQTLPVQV

[3] = tested on: Tyrosine-protein kinase ABL1 (Homo sapiens), P00519 [F317L]; test: Selectivity interaction (KinomeScan (DiscoverX)) EUB0000666a ABL1; conditions: at 10 µM
[4] = tested on: Receptor-type tyrosine-protein kinase FLT3 (Homo sapiens), P36888 [UNDEFINED MUTATION]; test: Selectivity interaction (LanthaScreen Eu Kinase Binding Assay) EUB0001632a FLT3; conditions: at 10 µM
Insulin receptor = Insulin receptor (Homo sapiens, UniProt P06213)
[5] = target: T2, Ephrin type-B receptor 1 (Homo sapiens) (UniProt P54762); test: Selectivity interaction (ActivX KiNativ screen (kinase selectivity in THP-1 cell lysates)) EUB0000639a EPHB1; assay type: subcellular; conditions: lysate
T2 sequence (whole entry): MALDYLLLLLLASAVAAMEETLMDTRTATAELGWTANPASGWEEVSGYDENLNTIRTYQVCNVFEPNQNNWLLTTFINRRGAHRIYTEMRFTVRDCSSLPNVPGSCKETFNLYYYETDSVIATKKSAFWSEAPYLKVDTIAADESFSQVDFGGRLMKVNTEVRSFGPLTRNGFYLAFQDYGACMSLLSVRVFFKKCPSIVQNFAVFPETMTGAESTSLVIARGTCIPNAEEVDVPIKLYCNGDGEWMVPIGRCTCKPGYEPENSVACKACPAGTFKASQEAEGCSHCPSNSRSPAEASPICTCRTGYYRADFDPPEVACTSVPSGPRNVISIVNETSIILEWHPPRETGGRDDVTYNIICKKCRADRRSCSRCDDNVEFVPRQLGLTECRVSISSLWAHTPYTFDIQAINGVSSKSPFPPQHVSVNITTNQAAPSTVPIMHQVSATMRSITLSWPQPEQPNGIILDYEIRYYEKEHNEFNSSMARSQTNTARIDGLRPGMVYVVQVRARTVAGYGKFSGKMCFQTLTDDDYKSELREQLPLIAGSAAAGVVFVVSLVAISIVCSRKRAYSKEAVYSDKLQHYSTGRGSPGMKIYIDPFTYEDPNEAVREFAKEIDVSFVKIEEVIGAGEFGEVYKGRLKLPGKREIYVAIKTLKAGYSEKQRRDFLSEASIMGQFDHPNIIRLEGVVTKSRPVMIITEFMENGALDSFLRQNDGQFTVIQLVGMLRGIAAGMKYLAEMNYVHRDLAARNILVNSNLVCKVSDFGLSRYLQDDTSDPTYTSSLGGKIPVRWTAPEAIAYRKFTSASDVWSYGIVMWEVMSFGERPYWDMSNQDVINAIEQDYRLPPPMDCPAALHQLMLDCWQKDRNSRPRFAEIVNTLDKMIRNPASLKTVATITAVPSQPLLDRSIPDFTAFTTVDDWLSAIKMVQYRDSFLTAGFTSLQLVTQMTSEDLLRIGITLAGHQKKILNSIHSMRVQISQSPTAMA

[6] = target: Maternal embryonic leucine zipper kinase (Homo sapiens) (UniProt Q14680); test: Selectivity interaction (KinomeScan (DiscoverX)) EUB0000607a MELK; conditions: at 10 µM
[7] = target: LIM domain kinase 2 (Homo sapiens) (UniProt P53671); test: Selectivity interaction (KinomeScan (DiscoverX)) EUB0000045b LIMK2
[8] = tested on: Epidermal growth factor receptor (Homo sapiens), P00533 [L858R]; test: (§1) Selectivity interaction (KinomeScan (DiscoverX)) EUB0000618a EGFR; conditions: at 10 µM
[9] = tested on: Epidermal growth factor receptor (Homo sapiens), P00533 [UNDEFINED MUTATION]; test: as §1; conditions: at 10 µM
[10] = tested on: Epidermal growth factor receptor (Homo sapiens), P00533 [L858R,T790M]; test: as §1; conditions: at 10 µM
[11] = tested on: Epidermal growth factor receptor (Homo sapiens), P00533 [G719C]; test: as §1; conditions: at 10 µM
[12] = tested on: Epidermal growth factor receptor (Homo sapiens), P00533 [T790M]; test: as §1; conditions: at 10 µM
Epidermal growth factor receptor (Homo sapiens), P00533 [T790M], sequence (P00533 whole entry T790M): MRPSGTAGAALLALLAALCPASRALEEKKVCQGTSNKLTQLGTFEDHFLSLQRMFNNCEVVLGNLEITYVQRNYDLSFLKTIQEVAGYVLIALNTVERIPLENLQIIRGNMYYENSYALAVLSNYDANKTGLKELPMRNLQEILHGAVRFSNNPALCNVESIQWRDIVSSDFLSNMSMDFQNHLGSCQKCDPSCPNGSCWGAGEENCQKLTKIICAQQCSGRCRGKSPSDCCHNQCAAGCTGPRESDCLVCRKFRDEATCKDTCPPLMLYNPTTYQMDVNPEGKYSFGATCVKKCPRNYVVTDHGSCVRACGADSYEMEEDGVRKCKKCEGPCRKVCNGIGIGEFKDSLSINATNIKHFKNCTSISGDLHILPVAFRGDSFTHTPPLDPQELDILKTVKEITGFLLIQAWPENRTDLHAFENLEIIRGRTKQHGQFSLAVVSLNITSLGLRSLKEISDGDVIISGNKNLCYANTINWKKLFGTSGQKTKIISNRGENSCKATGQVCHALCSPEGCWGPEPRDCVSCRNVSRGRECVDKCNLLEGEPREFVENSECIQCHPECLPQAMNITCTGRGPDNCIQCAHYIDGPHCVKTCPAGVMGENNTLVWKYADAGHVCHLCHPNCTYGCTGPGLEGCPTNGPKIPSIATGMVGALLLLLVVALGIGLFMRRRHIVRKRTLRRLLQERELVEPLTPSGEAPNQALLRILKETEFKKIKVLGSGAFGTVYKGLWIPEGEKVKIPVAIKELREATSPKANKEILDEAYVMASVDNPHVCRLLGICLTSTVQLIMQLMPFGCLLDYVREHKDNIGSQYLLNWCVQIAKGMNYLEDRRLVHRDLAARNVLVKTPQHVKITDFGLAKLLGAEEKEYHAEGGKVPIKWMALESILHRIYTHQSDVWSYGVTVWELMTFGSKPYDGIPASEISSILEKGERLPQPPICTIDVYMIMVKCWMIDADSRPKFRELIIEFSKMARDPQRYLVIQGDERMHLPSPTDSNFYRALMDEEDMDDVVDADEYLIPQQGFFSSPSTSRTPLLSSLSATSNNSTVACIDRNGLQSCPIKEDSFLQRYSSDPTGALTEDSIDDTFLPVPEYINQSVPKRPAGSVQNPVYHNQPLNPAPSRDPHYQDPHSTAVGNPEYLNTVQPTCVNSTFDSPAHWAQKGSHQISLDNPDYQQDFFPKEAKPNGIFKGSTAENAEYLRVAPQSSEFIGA

LIM domain kinase 2 (Homo sapiens), sequence (P53671 whole entry, looked up, the tested form may be a part): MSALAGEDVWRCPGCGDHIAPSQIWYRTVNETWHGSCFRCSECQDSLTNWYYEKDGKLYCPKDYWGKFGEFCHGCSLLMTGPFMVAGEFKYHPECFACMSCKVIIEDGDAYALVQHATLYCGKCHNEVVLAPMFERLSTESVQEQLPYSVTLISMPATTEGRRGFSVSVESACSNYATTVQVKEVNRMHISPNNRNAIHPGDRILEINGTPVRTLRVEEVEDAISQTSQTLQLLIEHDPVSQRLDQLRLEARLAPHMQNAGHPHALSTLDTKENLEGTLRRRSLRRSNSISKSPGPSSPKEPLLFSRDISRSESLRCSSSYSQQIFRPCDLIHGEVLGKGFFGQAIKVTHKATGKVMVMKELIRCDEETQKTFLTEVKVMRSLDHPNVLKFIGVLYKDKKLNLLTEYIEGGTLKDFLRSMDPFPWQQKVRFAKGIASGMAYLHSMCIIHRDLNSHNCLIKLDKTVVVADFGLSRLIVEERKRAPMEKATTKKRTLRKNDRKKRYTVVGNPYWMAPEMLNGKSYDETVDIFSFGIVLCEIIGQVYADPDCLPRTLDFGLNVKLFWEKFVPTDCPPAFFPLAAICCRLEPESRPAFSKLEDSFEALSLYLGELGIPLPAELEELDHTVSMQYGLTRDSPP
Epidermal growth factor receptor (Homo sapiens), P00533 [L858R], sequence (P00533 whole entry L858R): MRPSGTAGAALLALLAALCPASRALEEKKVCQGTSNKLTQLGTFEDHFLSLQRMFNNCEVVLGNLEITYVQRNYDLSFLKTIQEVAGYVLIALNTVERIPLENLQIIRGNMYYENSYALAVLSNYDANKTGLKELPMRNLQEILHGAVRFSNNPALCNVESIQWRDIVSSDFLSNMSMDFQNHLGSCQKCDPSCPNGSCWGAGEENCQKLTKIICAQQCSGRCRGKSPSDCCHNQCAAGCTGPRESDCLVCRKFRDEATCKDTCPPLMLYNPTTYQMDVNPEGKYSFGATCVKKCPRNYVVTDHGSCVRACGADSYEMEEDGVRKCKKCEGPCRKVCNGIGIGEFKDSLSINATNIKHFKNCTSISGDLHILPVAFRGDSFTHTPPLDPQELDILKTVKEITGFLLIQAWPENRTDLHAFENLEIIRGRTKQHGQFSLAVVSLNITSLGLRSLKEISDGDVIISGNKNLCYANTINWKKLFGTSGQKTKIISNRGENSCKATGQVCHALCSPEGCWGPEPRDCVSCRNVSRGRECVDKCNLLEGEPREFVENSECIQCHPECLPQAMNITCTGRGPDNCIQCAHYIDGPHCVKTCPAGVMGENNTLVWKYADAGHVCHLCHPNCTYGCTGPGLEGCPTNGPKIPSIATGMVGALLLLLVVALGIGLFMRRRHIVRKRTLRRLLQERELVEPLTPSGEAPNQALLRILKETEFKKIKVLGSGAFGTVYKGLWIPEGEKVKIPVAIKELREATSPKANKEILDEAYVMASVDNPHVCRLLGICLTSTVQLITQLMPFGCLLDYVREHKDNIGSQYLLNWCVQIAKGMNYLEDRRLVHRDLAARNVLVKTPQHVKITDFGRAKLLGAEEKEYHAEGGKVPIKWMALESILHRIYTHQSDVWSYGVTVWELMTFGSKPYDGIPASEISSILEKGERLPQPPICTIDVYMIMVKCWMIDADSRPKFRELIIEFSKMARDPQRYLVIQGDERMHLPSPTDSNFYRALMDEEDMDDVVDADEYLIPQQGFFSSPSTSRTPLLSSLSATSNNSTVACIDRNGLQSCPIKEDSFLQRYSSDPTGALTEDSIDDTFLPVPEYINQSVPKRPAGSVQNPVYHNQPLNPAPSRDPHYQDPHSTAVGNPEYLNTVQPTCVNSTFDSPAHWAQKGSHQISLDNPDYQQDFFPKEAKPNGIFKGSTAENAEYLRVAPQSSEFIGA
Insulin receptor, sequence (P06213 28-758 limits assumed): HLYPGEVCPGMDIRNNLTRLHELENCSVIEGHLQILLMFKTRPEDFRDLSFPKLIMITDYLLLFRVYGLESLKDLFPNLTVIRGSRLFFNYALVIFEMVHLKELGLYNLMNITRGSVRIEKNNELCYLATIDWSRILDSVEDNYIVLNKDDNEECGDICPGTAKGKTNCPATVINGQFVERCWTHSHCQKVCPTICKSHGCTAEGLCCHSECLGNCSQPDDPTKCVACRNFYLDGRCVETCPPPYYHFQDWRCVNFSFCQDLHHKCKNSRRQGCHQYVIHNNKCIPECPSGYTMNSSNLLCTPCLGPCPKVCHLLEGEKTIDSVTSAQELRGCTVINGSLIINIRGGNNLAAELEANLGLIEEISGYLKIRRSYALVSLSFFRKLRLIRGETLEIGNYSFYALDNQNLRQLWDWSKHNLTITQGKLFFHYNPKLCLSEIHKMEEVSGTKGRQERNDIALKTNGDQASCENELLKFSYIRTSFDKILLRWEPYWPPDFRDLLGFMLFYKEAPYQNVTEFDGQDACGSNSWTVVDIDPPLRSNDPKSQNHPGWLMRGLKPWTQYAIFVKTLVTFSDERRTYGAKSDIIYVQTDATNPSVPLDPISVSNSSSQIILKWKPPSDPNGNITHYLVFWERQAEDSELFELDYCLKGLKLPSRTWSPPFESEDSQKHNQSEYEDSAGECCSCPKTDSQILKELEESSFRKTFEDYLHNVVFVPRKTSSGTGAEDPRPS
Insulin receptor, sequence (P06213 763-1382 limits assumed): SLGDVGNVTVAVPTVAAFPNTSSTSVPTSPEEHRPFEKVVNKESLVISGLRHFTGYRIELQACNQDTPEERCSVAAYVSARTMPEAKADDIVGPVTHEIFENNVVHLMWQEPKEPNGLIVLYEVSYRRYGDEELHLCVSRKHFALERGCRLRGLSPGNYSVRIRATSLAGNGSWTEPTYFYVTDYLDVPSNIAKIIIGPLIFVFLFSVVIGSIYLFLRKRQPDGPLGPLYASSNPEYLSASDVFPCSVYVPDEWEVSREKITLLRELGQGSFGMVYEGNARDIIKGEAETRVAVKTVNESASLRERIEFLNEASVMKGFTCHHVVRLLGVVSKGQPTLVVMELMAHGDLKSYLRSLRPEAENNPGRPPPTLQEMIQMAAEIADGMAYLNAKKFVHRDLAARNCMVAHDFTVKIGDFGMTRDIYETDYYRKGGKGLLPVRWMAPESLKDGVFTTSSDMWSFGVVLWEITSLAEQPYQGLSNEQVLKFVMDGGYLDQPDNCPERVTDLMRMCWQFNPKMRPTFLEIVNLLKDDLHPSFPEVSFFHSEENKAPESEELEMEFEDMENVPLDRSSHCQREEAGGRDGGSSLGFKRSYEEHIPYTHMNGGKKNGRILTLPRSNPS
Maternal embryonic leucine zipper kinase (Homo sapiens), sequence (Q14680 whole entry, looked up, the tested form may be a part): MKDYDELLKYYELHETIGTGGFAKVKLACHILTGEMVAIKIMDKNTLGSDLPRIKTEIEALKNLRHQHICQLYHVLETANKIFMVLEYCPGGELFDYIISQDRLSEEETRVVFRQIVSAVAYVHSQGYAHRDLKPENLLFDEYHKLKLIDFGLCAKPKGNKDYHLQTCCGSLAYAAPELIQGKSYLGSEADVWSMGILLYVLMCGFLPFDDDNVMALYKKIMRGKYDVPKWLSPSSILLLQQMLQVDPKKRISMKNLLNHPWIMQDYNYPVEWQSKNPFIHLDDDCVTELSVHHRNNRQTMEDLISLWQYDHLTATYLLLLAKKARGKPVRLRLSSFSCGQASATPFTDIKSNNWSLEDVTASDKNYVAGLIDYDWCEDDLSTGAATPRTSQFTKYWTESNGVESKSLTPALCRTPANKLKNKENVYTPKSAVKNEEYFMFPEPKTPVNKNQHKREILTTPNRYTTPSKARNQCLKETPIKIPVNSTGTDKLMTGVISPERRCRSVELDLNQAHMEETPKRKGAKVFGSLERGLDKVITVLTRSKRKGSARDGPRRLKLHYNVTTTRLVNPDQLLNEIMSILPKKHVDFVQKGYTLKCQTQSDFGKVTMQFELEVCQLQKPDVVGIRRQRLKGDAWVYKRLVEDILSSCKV

## COc1cc(N(C)c2ccnc3ccc(C(F)(F)F)cc23)cc(OC)c1OC
[1]
  % binding: 77%

## Cc1ccc(-c2ccc3c(ccc4sc5c(c43)NC[C@@H](C)NC5=O)n2)cn1
[2]
  % of inhibition: -22%

## O=C(NOC[C@H](O)CO)c1ccc(F)c(F)c1Nc1ccc(I)cc1F
[3]
  % of control: 86%

## Cn1cc(-n2cnc3c(NCc4nc5cc(Cl)c(Cl)cc5[nH]4)nc(N4CCOCC4)nc32)cn1
[4]
  % of inhibition: -1.89%

## CCc1cccc(CC)c1NC(=O)c1nn(C)c2c1CCc1cnc(Nc3ccc(C(=O)NC4CCN(C)CC4)cc3OC(F)(F)F)nc1-2
Insulin receptor
  IC50: > 10 µM

## CC[C@@H]1[C@H](F)C(=O)N[C@@H]1COc1nccc2cc(C(N)=O)c(OC)cc12 [ZIMLOVISERTIB]
[5]; at 0.01 µM
  % of inhibition: -7%
[5]; at 0.04 µM
  % of inhibition: -38.7%
[5]; at 0.2 µM
  % of inhibition: -5.5%
[5]; at 1 µM
  % of inhibition: -14.3%
[5]; at 5 µM
  % of inhibition: -6.5%

## CNC(=O)Nc1ccc(-c2nc(N3CC4CCC(C3)O4)c3cnn(C4CCC5(CC4)OCCO5)c3n2)cc1
[6]
  % of control: 92%

## C=CC(=O)Nc1cc(-n2c(=O)ccc3cnc4ccc(-c5ccc(NS(C)(=O)=O)cc5)cc4c32)ccc1C
[7]; at 1 µM
  % of control: 92%
[7]; at 10 µM
  % of control: 100%

## O[C@H]1CC[C@H](Nc2ncc3nc(Nc4c(F)cc(F)cc4F)n([C@H]4CCOC4)c3n2)CC1
[8]
  % of control: 17%
[9]
  % of control: 7.4%
[10]
  % of control: 85%
[11]
  % of control: 20%
[12]
  % of control: 72%
